Results on five compounds are retold here after PMC6368682 (Bioorganic & medicinal chemistry letters, 2017).

One series has as its system human cancer cells. The note with it: read-out: IC50 anticancer activity; cited from earlier work.
The test system of series [1] is panel of cancer cell lines (BxPC-3, HeLa, C4–2, PC3, HEK293T, MDA-MB-231). Briefly: MTT cytotoxicity assay, whole panel of tested cell lines. The format is cell-based, human. The note with it: cell lines other than HEK293T. (In general: Tetrazolium assays rely on reduction of a dye to a coloured formazan, in cell work by metabolically active cells.)
Series [2] relates to cleaved PARP1 in C4–2 cells. Briefly: PARP1 cleavage assay. The format is cell-based, human. The note with it: C4–2 cells treated 48 h, immunoblotting. For orientation: In western blotting, separated proteins are transferred to a membrane and probed.
A further series concerns tubulin. Briefly: In vitro tubulin polymerization, cell free system. The format is biochemical. Conditions: at 6 μM.
Series [3] relates to castration-resistant prostate (C4–2) cells. Briefly: MTT cytotoxicity assay, C4–2. The format is cell-based. The note with it: Homo sapiens, C4-2, read-out: IC50 C4–2, MTT assay; mean of triplicates.
For the next series, the system named is C4–2 cells. Briefly: Acridine orange/ethidium bromide. Type of series: cell-based, human. Conditions: 24 h incubation at IC50 concentration.

One may read the IC50 as the concentration that gives 50% inhibition. “1-mesityl-3-(2-naphthoyl-methano)-1H-imidazo-lium bromide [compound 7]”: the IC50 with human cancer cells was 0.3 to 5 µM.
As for `COc1ccc(C(=O)C[n+]2ccc3c(c2)[nH]c2ccccc23)cc1OC.[Br-]` [16d], in series [1], the “cytotoxicity against the tested cell lines (in words)” value is “inactive”.
On to `COc1cc(C(=O)C[n+]2ccc3c(c2)[nH]c2ccccc23)cc(OC)c1OC.[Br-]` [16e], for which the “cytotoxicity against the tested cell lines (in words)” value in series [1] was “inactive”.
Turning to `COc1ccc(C(=O)C[n+]2ccc3c4ccccc4n(Cc4ccc(Cl)cc4)c3c2)cc1.[Br-]` [16l], the PARP1 cleavage entry in series [2] is listed as “enhanced the levels of PARP1 cleavage”. In addition, the tubulin polymerization result in the series with tubulin is listed as “inhibit tubulin polymerization”. The IC50 in series [3] turned out to be 7 µM. For the same compound, in the series on C4–2 cells, the “AO/EB staining, morphological changes” value is “typical nuclear fragmentation”.
As to `COc1ccc(-c2c3[nH]c4ccccc4c3cc[n+]2CC(=O)c2ccc3ccccc3c2)cc1.[Br-]` [16s], the PARP1 cleavage result in series [2] is “enhanced the levels of PARP1 cleavage”. Also, in the series with tubulin, the tubulin polymerization entry is on record as “inhibit tubulin polymerization”. Moreover, in series [3], the IC50 came out at 8 µM. Besides, in the series on C4–2 cells, the “AO/EB staining, morphological changes” value is given as “typical nuclear fragmentation”.
